Laboratory results: ChEMBL document CHEMBL3885861, “Open TG-GATES”

Species on record: Rattus norvegicus
Assay: Open TG-GATES - Regimen: Single
Assay type: toxicity, organism-based, Sprague-Dawley
Parameters: regimen Single, gender Male, age 6 weeks
Settings: in vivo, po, 100 mg/kg, route gavage, dose level Low; for ALP / ALT / AST / BUN / CRE / Ca / Cl / DBIL / GLC / IP / K / LDH / Na / PL / RALB / TBIL / TC / TG / TP / gamma-GTP: tissue Plasma

In the case of `O=C(O)c1cccnc1` [NIACIN], the Bas (3 h, tissue Blood) is reported as 0%, the Eos (3 h, tissue Blood) is reported as 1% and the Fbg (3 h, tissue Blood) is reported as 311 mg/dL. The Hb (3 h, tissue Blood) was 13.6 g/dL, the Ht (3 h, tissue Blood) was 40.7% and the Lym (3 h, tissue Blood) was 78.4%. It also gave an MCHC (3 h, tissue Blood) of 33.4%, an MCV (3 h, tissue Blood) of 65.5 fL and a Mono (3 h, tissue Blood) of 2.6%. For the same molecule, the Neu (3 h, tissue Blood) was 16.6%, the PT (3 h, tissue Blood) was 16.2 s and the Plat (3 h, tissue Blood) was 118.2 x10_4/uL. It also gave an RBC (3 h, tissue Blood) of 621.4 x10_4/ul, a Ret (3 h, tissue Blood) of 8.2% and a WBC (3 h, tissue Blood) of 107.6 x10_2/uL. The ALP (3 h) was 1552.4 IU/L, the ALT (3 h) was 42.2 IU/L and the AST (3 h) was 79.8 IU/L. For the same molecule, the BUN (3 h) was 13.6 mg/dL, the CRE (3 h) was 0.2 mg/dL and the Ca (3 h) was 10.8 mg/dL. It also gave a Cl (3 h) of 105.4 meq/L, a DBIL (3 h) of 0 mg/dL and a GLC (3 h) of 183 mg/dL. The IP (3 h) was 8.7 mg/dL, the K (3 h) was 3.9 meq/L and the LDH (3 h) was 196.8 IU/L. It also gave a Na (3 h) of 141 meq/L, a PL (3 h) of 118.4 mg/dL and an RALB (3 h) of 3 g/dL. For the same molecule, the TBIL (3 h) was 0.008 mg/dL, the TC (3 h) was 71 mg/dL and the TG (3 h) was 27.8 mg/dL. It also gave a TP (3 h) of 5.6 g/dL, a gamma-GTP (3 h) of 1.4 IU/L and an APTT (6 h, tissue Blood) of 22.5 s. For the same molecule, the Bas (6 h, tissue Blood) was 0%, the Eos (6 h, tissue Blood) was 1% and the Fbg (6 h, tissue Blood) was 314 mg/dL. The Hb (6 h, tissue Blood) was 13.4 g/dL, the Ht (6 h, tissue Blood) was 40% and the Lym (6 h, tissue Blood) was 78.4%. The MCHC (6 h, tissue Blood) was 33.4%, the Mono (6 h, tissue Blood) was 3.4% and the Neu (6 h, tissue Blood) was 16.2%. It also gave a PT (6 h, tissue Blood) of 16.5 s, a Plat (6 h, tissue Blood) of 119.1 x10_4/uL and an RBC (6 h, tissue Blood) of 626.8 x10_4/ul. It also gave a Ret (6 h, tissue Blood) of 8%, a WBC (6 h, tissue Blood) of 87.9 x10_2/uL and an ALP (6 h) of 1431.4 IU/L. For the same molecule, the ALT (6 h) was 38.8 IU/L, the AST (6 h) was 69.8 IU/L and the BUN (6 h) was 12.4 mg/dL. It also gave a CRE (6 h) of 0.2 mg/dL, a Ca (6 h) of 10.9 mg/dL and a Cl (6 h) of 105 meq/L. The DBIL (6 h) was 0.002 mg/dL, the GLC (6 h) was 186 mg/dL and the IP (6 h) was 8.9 mg/dL. The K (6 h) was 3.8 meq/L, the LDH (6 h) was 156.8 IU/L and the Na (6 h) was 139.8 meq/L. The PL (6 h) was 115 mg/dL, the RALB (6 h) was 3 g/dL and the TBIL (6 h) was 0.008 mg/dL. The TC (6 h) was 64.4 mg/dL, the TG (6 h) was 37.2 mg/dL and the TP (6 h) was 5.5 g/dL. The gamma-GTP (6 h) was 1.6 IU/L, the Bas (9 h, tissue Blood) was 0% and the Eos (9 h, tissue Blood) was 0.8%. For the same molecule, the Fbg (9 h, tissue Blood) was 305.4 mg/dL, the Hb (9 h, tissue Blood) was 13.5 g/dL and the Ht (9 h, tissue Blood) was 40.6%. It also gave a Lym (9 h, tissue Blood) of 81.6%, an MCHC (9 h, tissue Blood) of 33.3% and an MCV (9 h, tissue Blood) of 65.6 fL. The Mono (9 h, tissue Blood) was 2%, the Neu (9 h, tissue Blood) was 15.2% and the PT (9 h, tissue Blood) was 15.6 s. The Plat (9 h, tissue Blood) was 126.3 x10_4/uL, the RBC (9 h, tissue Blood) was 618.6 x10_4/ul and the Ret (9 h, tissue Blood) was 8.4%. It also gave a WBC (9 h, tissue Blood) of 88.6 x10_2/uL, an ALP (9 h) of 1314.4 IU/L and an ALT (9 h) of 38.8 IU/L. For the same molecule, the AST (9 h) was 70.4 IU/L, the CRE (9 h) was 0.2 mg/dL and the Ca (9 h) was 10.8 mg/dL. The Cl (9 h) was 105.4 meq/L, the DBIL (9 h) was 0.002 mg/dL and the GLC (9 h) was 182.8 mg/dL. For the same molecule, the IP (9 h) was 8.9 mg/dL, the K (9 h) was 4.1 meq/L and the LDH (9 h) was 161.4 IU/L. It also gave a Na (9 h) of 140.6 meq/L, a PL (9 h) of 134 mg/dL and an RALB (9 h) of 2.9 g/dL. It also gave a TBIL (9 h) of 0.008 mg/dL, a TC (9 h) of 73 mg/dL and a TG (9 h) of 77 mg/dL. The TP (9 h) was 5.5 g/dL, the gamma-GTP (9 h) was 1.6 IU/L and the Bas (24 h, tissue Blood) was 0%. The Eos (24 h, tissue Blood) was 1%, the Fbg (24 h, tissue Blood) was 327.8 mg/dL and the Hb (24 h, tissue Blood) was 13.7 g/dL. It also gave a Ht (24 h, tissue Blood) of 40.6%, a Lym (24 h, tissue Blood) of 77.8% and an MCHC (24 h, tissue Blood) of 33.6%. It also gave an MCV (24 h, tissue Blood) of 64.8 fL, a Mono (24 h, tissue Blood) of 3% and a Neu (24 h, tissue Blood) of 17.2%. It also gave a PT (24 h, tissue Blood) of 16 s, a Plat (24 h, tissue Blood) of 109.3 x10_4/uL and an RBC (24 h, tissue Blood) of 627.6 x10_4/ul. It also gave a Ret (24 h, tissue Blood) of 7.6%, a WBC (24 h, tissue Blood) of 96.3 x10_2/uL and an ALP (24 h) of 1716.6 IU/L. The ALT (24 h) was 41.6 IU/L, the AST (24 h) was 67.2 IU/L and the BUN (24 h) was 16.2 mg/dL. The CRE (24 h) was 0.2 mg/dL, the Ca (24 h) was 10.5 mg/dL and the Cl (24 h) was 104.6 meq/L. The DBIL (24 h) was 0.002 mg/dL, the GLC (24 h) was 192 mg/dL and the IP (24 h) was 7.6 mg/dL. The K (24 h) was 4.1 meq/L, the LDH (24 h) was 155.4 IU/L and the Na (24 h) was 139.6 meq/L. The PL (24 h) was 154.2 mg/dL, the RALB (24 h) was 3.1 g/dL and the TBIL (24 h) was 0 mg/dL. For the same molecule, the TC (24 h) was 75.2 mg/dL, the TG (24 h) was 158.4 mg/dL and the TP (24 h) was 5.6 g/dL.
